# Laboratory results: US8871753B2, “Macrocyclic compounds and their use as kinase inhibitors” (Incyte Corporation, priority 2008, dated 2014)
# Counter-ions that a name gives are not always drawn. Like-named read-outs stand apart in the source and are kept apart here.
# Legend:
# [1] = from COc1ccc(Nc2nc(Cl)ncc2Cl)cc1CCc1cncc(N)c1; cn_pd bond; 13-membered ring; Pd(OAc)2/Xantphos/Cs2CO3; 1,4-dioxane/DMF 1:1; 77.0 mM; 150.0 °C; 0.33 h
# [2] = target: T1, human JAK1 (a.a. 837-1142) (Homo sapiens, UniProt P23458); assay: In vitro JAK kinase assay (HTRF, phosphorylation of a biotinylated peptide), JAK1; type: biochemical; settings: read-out: JAK1 IC50
# T1 construct: human JAK1 (a.a. 837-1142); His tag (N); made in house; host or cells: insect cells (baculovirus)
# How it was run: (§1)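 Kinase reactions ran at room temperature for 1 h with ATP matched per isoform (JAK1 90 μM, JAK2 30 μM, JAK3 3 μM). After an EDTA stop, the phosphorylated biotin-peptide was read by HTRF using Eu-Py20 and SA-APC after 40 min binding.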
# [3] = target: T2, human JAK3 (a.a. 781-1124) (Homo sapiens, UniProt P52333); assay: In vitro JAK kinase assay (HTRF, phosphorylation of a biotinylated peptide), JAK3; type: biochemical
# T2 construct: JAK3 (a.a. 781-1124); His tag (N); made in house; host or cells: insect cells (baculovirus)
# How it was run: as §1
# [4] = target: T3, human JAK2 (a.a. 828-1132) (Homo sapiens, UniProt O60674); assay: In vitro JAK kinase assay (HTRF, phosphorylation of a biotinylated peptide), JAK2; type: biochemical
# T3 construct: JAK2 (a.a. 828-1132); His tag (N); made in house; host or cells: insect cells (baculovirus)
# How it was run: as §1
# [5] = target: T4, Recombinant Human Anaplastic Lymphoma Kinase (Homo sapiens, UniProt Q9UM73); assay: ALK HTRF kinase assay; type: biochemical; settings: for ALK % inhibition at a concentration of 500 nM or 1 mM: compound at a concentration of 500 nM or 1 mM
# T4 construct: purchased Invitrogen, Carlsbad, Calif
# How it was run: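 TR-FRET read-out (Eu anti-pTyr antibody + streptavidin-APC) of biotin-peptide phosphorylation by recombinant human enzyme; IC50 by sigmoidal fit with top/bottom baselines and Hill slope.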
# TYK2 = TYK2 (Homo sapiens, UniProt P29597); assay: TYK2 kinase inhibition (Table A1); type: biochemical
# [6] = cn_pd bond, 13-membered ring, Pd(OAc)2/Xantphos/Cs2CO3/Et3N
# NOD mouse = NOD mouse model of autoimmune type 1 diabetes; cited from earlier work
# [7] = system: myeloid dendritic cells (DCs); settings: CD40-induced maturation of myeloid DCs; cited from earlier work
# [8] = system: IL-6-dependent MM cell lines; settings: cited from earlier work
# Sequence of TYK2 (P29597 whole entry): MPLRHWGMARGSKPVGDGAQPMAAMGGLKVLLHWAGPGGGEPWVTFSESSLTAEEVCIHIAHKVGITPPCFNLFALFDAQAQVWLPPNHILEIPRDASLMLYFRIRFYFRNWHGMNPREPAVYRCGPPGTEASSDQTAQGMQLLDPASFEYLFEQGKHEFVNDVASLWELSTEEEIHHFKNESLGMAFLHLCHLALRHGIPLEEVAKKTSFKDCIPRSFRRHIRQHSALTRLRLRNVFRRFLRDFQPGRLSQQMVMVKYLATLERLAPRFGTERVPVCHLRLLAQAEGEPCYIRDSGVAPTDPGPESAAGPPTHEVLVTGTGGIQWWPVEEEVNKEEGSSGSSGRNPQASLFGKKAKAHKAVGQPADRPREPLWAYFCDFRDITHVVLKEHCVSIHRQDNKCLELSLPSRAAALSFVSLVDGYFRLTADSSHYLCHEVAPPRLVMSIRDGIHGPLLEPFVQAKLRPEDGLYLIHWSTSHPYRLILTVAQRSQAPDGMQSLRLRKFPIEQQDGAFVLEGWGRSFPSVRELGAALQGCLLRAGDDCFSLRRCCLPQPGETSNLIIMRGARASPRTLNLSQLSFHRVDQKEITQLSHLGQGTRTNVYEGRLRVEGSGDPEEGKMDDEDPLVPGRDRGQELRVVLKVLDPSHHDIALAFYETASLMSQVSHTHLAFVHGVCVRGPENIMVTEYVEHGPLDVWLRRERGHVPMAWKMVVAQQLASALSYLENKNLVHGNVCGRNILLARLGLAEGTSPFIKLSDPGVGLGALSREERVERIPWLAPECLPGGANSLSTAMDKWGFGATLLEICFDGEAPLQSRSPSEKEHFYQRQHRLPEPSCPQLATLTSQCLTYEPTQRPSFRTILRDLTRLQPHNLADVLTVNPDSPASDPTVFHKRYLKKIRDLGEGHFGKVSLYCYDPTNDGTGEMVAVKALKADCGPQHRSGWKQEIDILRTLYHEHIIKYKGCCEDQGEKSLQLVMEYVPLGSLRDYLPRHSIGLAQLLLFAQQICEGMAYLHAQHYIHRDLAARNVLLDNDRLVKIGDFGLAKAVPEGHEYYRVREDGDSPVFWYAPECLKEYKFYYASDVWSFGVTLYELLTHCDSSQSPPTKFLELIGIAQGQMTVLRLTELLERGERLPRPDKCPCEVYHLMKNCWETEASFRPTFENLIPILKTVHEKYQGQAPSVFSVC
# T1 sequence (P23458 849-1154): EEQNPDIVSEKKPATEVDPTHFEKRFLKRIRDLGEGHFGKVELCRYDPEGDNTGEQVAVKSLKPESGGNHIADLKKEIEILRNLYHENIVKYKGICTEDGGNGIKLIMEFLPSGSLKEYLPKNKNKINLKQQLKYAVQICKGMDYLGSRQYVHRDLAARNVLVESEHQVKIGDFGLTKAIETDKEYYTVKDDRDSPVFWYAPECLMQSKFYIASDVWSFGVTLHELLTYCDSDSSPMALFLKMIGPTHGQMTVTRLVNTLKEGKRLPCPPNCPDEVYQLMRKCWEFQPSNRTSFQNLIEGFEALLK
# T4 sequence (Q9UM73 19-1620): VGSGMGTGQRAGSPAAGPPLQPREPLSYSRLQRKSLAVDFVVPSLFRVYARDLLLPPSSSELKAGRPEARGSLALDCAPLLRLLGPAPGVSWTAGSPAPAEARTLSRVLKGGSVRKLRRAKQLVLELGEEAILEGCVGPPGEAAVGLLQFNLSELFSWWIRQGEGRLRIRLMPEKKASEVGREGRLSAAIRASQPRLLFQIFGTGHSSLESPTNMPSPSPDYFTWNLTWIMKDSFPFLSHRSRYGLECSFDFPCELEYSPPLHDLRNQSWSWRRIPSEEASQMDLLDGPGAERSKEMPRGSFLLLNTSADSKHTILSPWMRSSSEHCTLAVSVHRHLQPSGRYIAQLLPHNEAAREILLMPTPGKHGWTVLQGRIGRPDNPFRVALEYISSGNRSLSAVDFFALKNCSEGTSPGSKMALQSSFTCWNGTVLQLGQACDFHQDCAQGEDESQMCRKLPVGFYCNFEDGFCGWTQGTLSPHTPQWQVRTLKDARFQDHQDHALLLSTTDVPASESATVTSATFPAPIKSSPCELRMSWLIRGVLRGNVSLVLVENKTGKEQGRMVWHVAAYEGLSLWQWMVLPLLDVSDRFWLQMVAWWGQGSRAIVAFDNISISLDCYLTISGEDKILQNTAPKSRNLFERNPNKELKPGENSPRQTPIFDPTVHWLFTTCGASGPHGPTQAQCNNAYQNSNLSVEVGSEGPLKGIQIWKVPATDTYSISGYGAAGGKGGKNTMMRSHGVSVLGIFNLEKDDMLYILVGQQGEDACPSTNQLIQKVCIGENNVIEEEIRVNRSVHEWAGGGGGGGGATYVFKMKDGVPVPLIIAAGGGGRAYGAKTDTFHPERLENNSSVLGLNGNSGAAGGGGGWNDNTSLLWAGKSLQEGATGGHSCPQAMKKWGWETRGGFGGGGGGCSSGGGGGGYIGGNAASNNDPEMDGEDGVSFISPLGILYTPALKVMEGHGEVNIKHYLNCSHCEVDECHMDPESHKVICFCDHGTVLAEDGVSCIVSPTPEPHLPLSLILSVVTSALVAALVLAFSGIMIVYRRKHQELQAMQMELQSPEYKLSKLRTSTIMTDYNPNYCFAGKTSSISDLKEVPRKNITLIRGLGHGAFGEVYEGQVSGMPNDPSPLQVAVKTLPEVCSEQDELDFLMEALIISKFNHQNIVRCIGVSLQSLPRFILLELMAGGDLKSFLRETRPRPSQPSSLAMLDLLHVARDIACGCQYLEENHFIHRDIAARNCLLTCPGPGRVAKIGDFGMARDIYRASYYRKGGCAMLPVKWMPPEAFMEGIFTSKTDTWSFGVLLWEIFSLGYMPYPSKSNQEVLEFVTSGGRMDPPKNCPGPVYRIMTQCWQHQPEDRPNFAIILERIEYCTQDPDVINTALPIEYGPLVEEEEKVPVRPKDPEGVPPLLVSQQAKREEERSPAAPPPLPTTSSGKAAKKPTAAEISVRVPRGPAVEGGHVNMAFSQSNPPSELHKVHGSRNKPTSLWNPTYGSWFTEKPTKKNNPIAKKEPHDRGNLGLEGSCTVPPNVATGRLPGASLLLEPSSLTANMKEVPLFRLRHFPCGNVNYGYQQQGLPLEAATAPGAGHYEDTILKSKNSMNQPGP
# T3 sequence (O60674 828-1132): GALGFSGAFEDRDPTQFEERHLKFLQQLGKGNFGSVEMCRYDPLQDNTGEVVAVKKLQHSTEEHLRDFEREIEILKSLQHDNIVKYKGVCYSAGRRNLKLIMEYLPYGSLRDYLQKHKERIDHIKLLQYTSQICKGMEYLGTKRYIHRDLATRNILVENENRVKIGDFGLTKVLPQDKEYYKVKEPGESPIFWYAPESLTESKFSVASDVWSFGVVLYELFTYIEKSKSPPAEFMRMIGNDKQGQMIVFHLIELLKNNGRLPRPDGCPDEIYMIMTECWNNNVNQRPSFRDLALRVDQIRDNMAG
# T2 sequence (P52333 781-1124): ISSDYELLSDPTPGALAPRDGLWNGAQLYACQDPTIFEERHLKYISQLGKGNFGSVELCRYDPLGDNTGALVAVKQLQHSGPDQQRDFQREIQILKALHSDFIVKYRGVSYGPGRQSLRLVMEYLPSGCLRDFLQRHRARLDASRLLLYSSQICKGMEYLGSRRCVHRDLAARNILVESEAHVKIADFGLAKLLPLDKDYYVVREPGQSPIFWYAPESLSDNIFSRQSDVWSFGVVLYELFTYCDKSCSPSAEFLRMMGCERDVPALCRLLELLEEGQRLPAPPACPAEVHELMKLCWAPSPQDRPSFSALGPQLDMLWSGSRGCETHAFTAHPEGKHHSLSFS
Structure (SMILES),IC50 [2] [nM],IC50 [3] [nM],IC50 [4] [nM],ALK % inhibition at a concentration of 500 nM or 1 mM [5] [%],IC50 (TYK2) [nM],other results
COc1ccc2cc1CCc1cncc(c1)Nc1ncc(Cl)c(n1)N2,–,–,–,–,–,"ring closure, crude yield [1]: 85%"
"Nc1ccc2cc1CCc1cncc(c1)Nc1ncc(Cl)c(n1)N2 [Example B20, 6-Chloro-2,4,8,18,22-pentaazatetracyclo[14.3.1.1(3,7).1(9,13)]docosa-1(20),3(22),4,6,9(21),10,12,16,18-nonaen-12-amine tris(trifluoroacetate)]",–,–,–,–,–,"IC50 ([2]; Table B1): 1 nM; IC50 ([3]; Table B1): 6.7 nM; IC50 ([4]; Table B1): 1.3 nM; ALK % of inhibition at a concentration of 500 nM or 1 mM ([5]; compound at a concentration of 500 nM or 1 mM (not specified), cells shown as percentage): 51%; IC50 (TYK2; Table B1): 1.6 nM; ring closure, yield after HPLC (from Nc1cncc(CCc2cc(Nc3nc(Cl)ncc3Cl)ccc2N)c1, cn_pd bond, 13-membered ring, Pd2(dba)3/Xantphos/Cs2CO3/DIEA, 1,4-dioxane/DMF 3:1, 77.0 mM, 160.0 °C, 0.5 h): 23%"
"Clc1cnc2nc1Nc1cccc(c1)CCc1cc(ccn1)N2 [Example C12, 6-Chloro-2,4,8,17,22-pentaazatetracyclo[14.3.1.1(3,7).1(9,13)]docosa-1(20),3(22),4,6,9(21),10,12,16,18-nonaene]",14,39,9.5,26,13,"ring closure, isolated yield ([6]; from Nc1ccnc(CCc2cccc(Nc3nc(Cl)ncc3Cl)c2)c1, 1,4-dioxane, 117.0 mM, 150.0 °C, 0.5 h): 36%"
"Fc1cnc2nc1Nc1cccc(c1)CCc1cc(ccn1)N2 [Example C13, 6-Fluoro-2,4,8,17,22-pentaazatetracyclo[14.3.1.1(3,7).1(9,13)]docosa-1(20),3(22),4,6,9(21),10,12,16,18-nonaene]",70,154,17,18,16,"ring closure, isolated yield ([6]; from Nc1ccnc(CCc2cccc(Nc3nc(Cl)ncc3F)c2)c1, 1,4-dioxane, 120.0 mM, 150.0 °C, 0.5 h): 41%"
"Clc1cnc2nc1Nc1cccc(c1)/C=C\c1cc(ccn1)N2 [Example C14, (14Z)-6-Chloro-2,4,8,17,22-pentaazatetracyclo[14.3.1.1(3,7).1(9,13)]docosa-1(20),3(22),4,6,9(21),10,12,14,16,18-decaene]",10,17,2.8,19,5.7,"ring closure, isolated yield ([6]; from Nc1ccnc(/C=C\c2cccc(Nc3nc(Cl)ncc3Cl)c2)c1, 1,4-dioxane, 114.0 mM, 150.0 °C, 0.5 h): 35%"
"Clc1cnc2nc1Nc1cccc(c1)CCOc1cccc(c1)N2 [Example D5, 6-Chloro-16-oxa-2,4,8,23-tetraazatetracyclo[15.3.1.1(3,7).1(9,13)]tricosa-1(21),3(23),4,6,9(22),10,12,17,19-nonaene trifluoroacetate]",–,–,–,–,–,"IC50 ([2]; Table D1): 30 nM; IC50 ([3]; Table D1): 36 nM; IC50 ([4]; Table D1): 15 nM; IC50 ([5]; Table D1, 90 μM ATP): 509 nM; IC50 (TYK2; Table D1): 12 nM; ring closure, yield after HPLC (from OCCc1cccc(Nc2nc(Nc3cccc(O)c3)ncc2Cl)c1, ether bond, 14-membered ring, PPh3/DIAD, THF, 8.5 mM, 25.0 °C, 2.0 h): 20%"
COc1cc2ncnc(Nc3ccc(O)cc3)c2cc1OC [JANEX-1],–,–,–,–,–,onset of diabetes (NOD mouse): delayed the onset of diabetes
COc1cc2ncnc(Nc3ccc(O)c(Br)c3)c2cc1OC [WHI-P-154],–,–,–,–,–,"CD40-induced effects (JAK3 activity, costimulatory molecule expression, IL-12 production, allogeneic stimulatory capacity) [7]: prevented these effects"
CC(C)(C)c1nc2c3cc[nH]c(=O)c3c3cc(F)ccc3c2[nH]1 [pyridone 6],–,–,–,–,–,STAT3 phosphorylation [8]: inhibited; tumor cell proliferation and survival [8]: inhibited

# Further lines, with some results ahead:
IC50 [2] [nM],IC50 [3] [nM],IC50 [4] [nM],ALK % inhibition at a concentration of 500 nM or 1 mM [5] [%],IC50 (TYK2) [nM],Structure (SMILES),other results
700,–,87,6,106,"Clc1cnc2nc1Nc1cccc(c1)CCc1ccnc(c1)N2 [Example C15, 6-Chloro-2,4,8,19,22-pentaazatetracyclo[14.3.1.1(3,7).1(9,13)]docosa-1(20),3(22),4,6,9(21),10,12,16,18-nonaene]","ring closure, isolated yield ([6]; from Nc1cc(CCc2cccc(Nc3nc(Cl)ncc3Cl)c2)ccn1, 1,4-dioxane/DMF 1:1, 57.0 mM, 160.0 °C, 0.33 h): 61%"
> 1000,350,60,14,83,"Fc1cnc2nc1Nc1cccc(c1)CCc1ccnc(c1)N2 [Example C16, 6-Fluoro-2,4,8,19,22-pentaazatetracyclo[14.3.1.1(3,7).1(9,13)]docosa-1(20),3(22),4,6,9(21),10,12,16,18-nonaene]","ring closure, isolated yield ([6]; from Nc1cc(CCc2cccc(Nc3nc(Cl)ncc3F)c2)ccn1, 1,4-dioxane/DMF 1:1, 60.0 mM, 160.0 °C, 0.5 h): 30%"
> 1000,> 1000,> 1000,1,> 1000,"Clc1cnc2nc1Nc1cccc(c1)CCc1cccc(n1)N2 [Example C17, 6-Chloro-2,4,8,20,22-pentaazatetracyclo[14.3.1.1(3,7).1(9,13)]docosa-1(20),3(22),4,6,9(21),10,12,16,18-nonaene]","ring closure, isolated yield ([6]; from Nc1cccc(CCc2cccc(Nc3nc(Cl)ncc3Cl)c2)n1, 1,4-dioxane/DMF 1:1, 75.0 mM, 160.0 °C, 0.5 h): 37%"
> 1000,> 1000,> 1000,3,> 1000,"Fc1cnc2nc1Nc1cccc(c1)CCc1cccc(n1)N2 [Example C18, 6-Fluoro-2,4,8,20,22-pentaazatetracyclo[14.3.1.1(3,7).1(9,13)]docosa-1(20),3(22),4,6,9(21),10,12,16,18-nonaene]","ring closure, isolated yield ([6]; from Nc1cccc(CCc2cccc(Nc3nc(Cl)ncc3F)c2)n1, 1,4-dioxane/DMF 1:1, 60.0 mM, 160.0 °C, 1.0 h): 25%"
2.9,28,7,45,10,"Clc1cnc2nc1Nc1cccc(c1)CCc1cncc(c1)N2 [Example C19, 6-Chloro-2,4,8,18,22-pentaazatetracyclo[14.3.1.1(3,7).1(9,13)]docosa-1(20),3(22),4,6,9(21),10,12,16,18-nonaene bis(trifluoroacetate)]","ring closure, yield after HPLC (from Nc1cncc(CCc2cccc(Nc3nc(Cl)ncc3Cl)c2)c1, cn_pd bond, 13-membered ring, Pd(OAc)2/Xantphos/Cs2CO3/Et3N, 1,4-dioxane, 140.0 mM, 150.0 °C, 1.0 h): 28%"
2.9,13,2.3,26,4.4,"Clc1cnc2nc1Nc1cccc(c1)/C=C\c1cncc(c1)N2 [Example C20, (14Z)-6-Chloro-2,4,8,18,22-pentaazatetracyclo[14.3.1.1(3,7).1(9,13)]docosa-1(20),3(22),4,6,9(21),10,12,14,16,18-decaene bis(trifluoroacetate)]","ring closure, yield after HPLC (from Nc1cncc(/C=C\c2cccc(Nc3nc(Cl)ncc3Cl)c2)c1, cn_pd bond, 13-membered ring, Pd(OAc)2/Xantphos/Cs2CO3/Et3N, 1,4-dioxane, 70.0 mM, 150.0 °C, 1.0 h): 30%"
13,111,28,26,15,"Fc1cnc2nc1Nc1cccc(c1)CCc1cncc(c1)N2 [Example C21, 6-Fluoro-2,4,8,18,22-pentaazatetracyclo[14.3.1.1(3,7).1(9,13)]docosa-1(20),3(22),4,6,9(21),10,12,16,18-nonaene bis(trifluoroacetate)]","ring closure, yield after HPLC (from Nc1cncc(CCc2cccc(Nc3nc(Cl)ncc3F)c2)c1, cn_pd bond, 13-membered ring, Pd(OAc)2/Xantphos/Cs2CO3/Et3N, 1,4-dioxane, 87.0 mM, 150.0 °C, 2.0 h): 37%"
33,> 400,111,–,80,"Cc1cnc2nc1Nc1ccc(N)c(c1)CCc1cncc(c1)N2 [Example C50, 6-Methyl-2,4,8,18,22-pentaazatetracyclo[14.3.1.1(3,7).1(9,13)]docosa-1(20),3(22),4,6,9(21),10,12,16,18-nonaen-12-amine tris(trifluoroacetate)]","ring closure, yield after HPLC (from Cc1cnc(Cl)nc1Nc1ccc(N)c(CCc2cncc(N)c2)c1, cn_pd bond, 13-membered ring, Pd(OAc)2/Xantphos/Cs2CO3/Et3N, 1,4-dioxane, 135.0 mM, 160.0 °C, 0.33 h): 50%"
